According to US20120219615A1, “Therapeutic Use of a TLR Agonist and Combination Therapy” (The Trustees of the University of Pennsylvania, priority 2010, published 2012):

System: G-CSF, MCP-1, MIP-1β, TNFα
Test: Phase I clinical study: pharmacodynamic response, plasma immune mediators (MAP)
Type: in vivo
Details: human, s.c., first dose
Procedure: Study Procedures: VTX-2337 was administered weekly via subcutaneous injection on Days 1, 8, and 15 of a 28-day dosing cycle for two cycles. Using a modified Fibonacci dose-escalation scheme, successive cohorts received doses ranging from 0.1 mg/m^2 to 3.9 mg/m^2 of VTX-2337. Plasma samples were collected for pharmacokinetic analysis after the first dose of the first treatment cycle and for pharmacodynamic analyses after the first dose of the first and second treatment cycles.
To evaluate the pharmacodynamic (PD) response to VTX-2337, blood was collected at 0, 4, 8, 24 hours after subcutaneous administration of the first dose of the first cycle of VTX-2337. Plasma levels of immune mediators were quantified using the human multiple analyte panel (MAP), version 1.8 (Rules Based Medicine). […] Levels of mediators in plasma collected from 9 healthy volunteers are shown for comparison to the oncology population. […]

SMILES: CCCN(CCC)C(=O)C1=Cc2ccc(-c3ccc(C(=O)N4CCCC4)cc3)cc2N=C(N)C1 [VTX-2337, 2-amino-N,N-dipropyl-8-(4-(pyrrolidine-1-carbonyl)phenyl)-3H-benzo[b]azepine-4-carboxamide]
- G-CSF plasma level (Cohort 5 (1.3 mg/m^2), 0 Hr): 5.0 ± 0.3 pg/mL
- MCP-1 plasma level (Cohort 5 (1.3 mg/m^2), 0 Hr): 227 ± 79.8 pg/mL
- MIP-1β plasma level (Cohort 5 (1.3 mg/m^2), 0 Hr): 182 ± 36.9 pg/mL
- TNFα plasma level (Cohort 5 (1.3 mg/m^2), 0 Hr): 9.3 ± 4.1 pg/mL
- G-CSF plasma level (Cohort 5 (1.3 mg/m^2), 4 Hr): 20.5 ± 24.7 pg/mL
- MCP-1 plasma level (Cohort 5 (1.3 mg/m^2), 4 Hr): 911 ± 951 pg/mL
- MIP-1β plasma level (Cohort 5 (1.3 mg/m^2), 4 Hr): 543 ± 477 pg/mL
- TNFα plasma level (Cohort 5 (1.3 mg/m^2), 4 Hr): 14.9 ± 12.5 pg/mL
- G-CSF plasma level (Cohort 5 (1.3 mg/m^2), 8 Hr): 196 ± 145 pg/mL
- MCP-1 plasma level (Cohort 5 (1.3 mg/m^2), 8 Hr): 954 ± 638 pg/mL
- MIP-1β plasma level (Cohort 5 (1.3 mg/m^2), 8 Hr): 688 ± 635 pg/mL
- TNFα plasma level (Cohort 5 (1.3 mg/m^2), 8 Hr): 21.6 ± 13.3 pg/mL
- G-CSF plasma level (Cohort 5 (1.3 mg/m^2), 24 Hr): 30.8 ± 10.4 pg/mL
- MCP-1 plasma level (Cohort 5 (1.3 mg/m^2), 24 Hr): 246 ± 158 pg/mL
- MIP-1β plasma level (Cohort 5 (1.3 mg/m^2), 24 Hr): 228 ± 70.1 pg/mL
- TNFα plasma level (Cohort 5 (1.3 mg/m^2), 24 Hr): 15.3 ± 4.2 pg/mL
- G-CSF plasma level (Cohort 6 (2.0 mg/m^2), 0 Hr): 9.9 ± 8.2 pg/mL
- MCP-1 plasma level (Cohort 6 (2.0 mg/m^2), 0 Hr): 265 ± 161 pg/mL
- MIP-1β plasma level (Cohort 6 (2.0 mg/m^2), 0 Hr): 136 ± 28.3 pg/mL
- TNFα plasma level (Cohort 6 (2.0 mg/m^2), 0 Hr): 4.4 ± 1.6 pg/mL
- G-CSF plasma level (Cohort 6 (2.0 mg/m^2), 4 Hr): 14.0 ± 4.3 pg/mL
- MCP-1 plasma level (Cohort 6 (2.0 mg/m^2), 4 Hr): 247 ± 80.5 pg/mL
- MIP-1β plasma level (Cohort 6 (2.0 mg/m^2), 4 Hr): 196 ± 62.5 pg/mL
- TNFα plasma level (Cohort 6 (2.0 mg/m^2), 4 Hr): 8.4 ± 1.5 pg/mL
- G-CSF plasma level (Cohort 6 (2.0 mg/m^2), 8 Hr): 134 ± 149 pg/mL
- MCP-1 plasma level (Cohort 6 (2.0 mg/m^2), 8 Hr): 722 ± 224 pg/mL
- MIP-1β plasma level (Cohort 6 (2.0 mg/m^2), 8 Hr): 289 ± 111 pg/mL
- TNFα plasma level (Cohort 6 (2.0 mg/m^2), 8 Hr): 10.0 ± 2.3 pg/mL
- G-CSF plasma level (Cohort 6 (2.0 mg/m^2), 24 Hr): 42.2 ± 31.6 pg/mL
- MCP-1 plasma level (Cohort 6 (2.0 mg/m^2), 24 Hr): 320 ± 244 pg/mL
- MIP-1β plasma level (Cohort 6 (2.0 mg/m^2), 24 Hr): 155 ± 26 pg/mL
- TNFα plasma level (Cohort 6 (2.0 mg/m^2), 24 Hr): 10.0 ± 0.2 pg/mL
- G-CSF plasma level (Cohort 7 (2.8 mg/m^2), 0 Hr): 7.4 ± 3.2 pg/mL
- MCP-1 plasma level (Cohort 7 (2.8 mg/m^2), 0 Hr): 250 ± 110 pg/mL
- MIP-1β plasma level (Cohort 7 (2.8 mg/m^2), 0 Hr): 136 ± 22 pg/mL
- TNFα plasma level (Cohort 7 (2.8 mg/m^2), 0 Hr): 6.1 ± 1.8 pg/mL
- G-CSF plasma level (Cohort 7 (2.8 mg/m^2), 4 Hr): 12.4 ± 2.4 pg/mL
- MCP-1 plasma level (Cohort 7 (2.8 mg/m^2), 4 Hr): 719 ± 433 pg/mL
- MIP-1β plasma level (Cohort 7 (2.8 mg/m^2), 4 Hr): 517 ± 305 pg/mL
- TNFα plasma level (Cohort 7 (2.8 mg/m^2), 4 Hr): 10.9 ± 1.4 pg/mL
- G-CSF plasma level (Cohort 7 (2.8 mg/m^2), 8 Hr): 553 ± 246 pg/mL
- MCP-1 plasma level (Cohort 7 (2.8 mg/m^2), 8 Hr): 2043 ± 760 pg/mL
- MIP-1β plasma level (Cohort 7 (2.8 mg/m^2), 8 Hr): 646 ± 216 pg/mL
- TNFα plasma level (Cohort 7 (2.8 mg/m^2), 8 Hr): 12.8 ± 2.5 pg/mL
- G-CSF plasma level (Cohort 7 (2.8 mg/m^2), 24 Hr): 59.0 ± 31.7 pg/mL
- MCP-1 plasma level (Cohort 7 (2.8 mg/m^2), 24 Hr): 273 ± 109 pg/mL
- MIP-1β plasma level (Cohort 7 (2.8 mg/m^2), 24 Hr): 152 ± 82 pg/mL
- TNFα plasma level (Cohort 7 (2.8 mg/m^2), 24 Hr): 8.8 ± 4.1 pg/mL
- G-CSF plasma level (Cohort 8 (3.9 mg/m^2), 0 Hr): 29.1 ± 55.8 pg/mL
- MCP-1 plasma level (Cohort 8 (3.9 mg/m^2), 0 Hr): 249 ± 56 pg/mL
- MIP-1β plasma level (Cohort 8 (3.9 mg/m^2), 0 Hr): 236 ± 111 pg/mL
- TNFα plasma level (Cohort 8 (3.9 mg/m^2), 0 Hr): 14.9 ± 9.1 pg/mL
- G-CSF plasma level (Cohort 8 (3.9 mg/m^2), 4 Hr): 83.3 ± 104.7 pg/mL
- MCP-1 plasma level (Cohort 8 (3.9 mg/m^2), 4 Hr): 5227 ± 8362 pg/mL
- MIP-1β plasma level (Cohort 8 (3.9 mg/m^2), 4 Hr): 7793 ± 10824 pg/mL
- TNFα plasma level (Cohort 8 (3.9 mg/m^2), 4 Hr): 56.9 ± 48.3 pg/mL
- G-CSF plasma level (Cohort 8 (3.9 mg/m^2), 8 Hr): 2151 ± 3586 pg/mL
- MCP-1 plasma level (Cohort 8 (3.9 mg/m^2), 8 Hr): 8128 ± 10588 pg/mL
- MIP-1β plasma level (Cohort 8 (3.9 mg/m^2), 8 Hr): 2259 ± 2456 pg/mL
- TNFα plasma level (Cohort 8 (3.9 mg/m^2), 8 Hr): 42.7 ± 27.4 pg/mL
- G-CSF plasma level (Cohort 8 (3.9 mg/m^2), 24 Hr): 141.4 ± 228.8 pg/mL
- MCP-1 plasma level (Cohort 8 (3.9 mg/m^2), 24 Hr): 532 ± 571 pg/mL
- MIP-1β plasma level (Cohort 8 (3.9 mg/m^2), 24 Hr): 276 ± 108 pg/mL
- TNFα plasma level (Cohort 8 (3.9 mg/m^2), 24 Hr): 24.2 ± 9.4 pg/mL
